Results taken from PubChem BioAssay (NCI).
Several values for one entry are separate records, joined by “and”; a condition that tells them apart may be missing. Equal values may be shown once.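 Tested at 5 concentrations; 48 h exposure; 96-well plates; endpoints linearly interpolated, else capped at highest concentration. The concentration for 50% growth inhibition is given as GI50. TGI is the concentration that stops growth completely.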

How the values were obtained:
Assay in all cases: growth of human tumour cells (NCI), 48 h
BT-549 breast = tested on: BT-549 breast
ACHN renal = tested on: ACHN renal
OVCAR-5 ovarian = tested on: OVCAR-5 ovarian
786-0 renal = tested on: 786-0 renal
SN12C renal = tested on: SN12C renal
A549 NSCLC = tested on: A549 NSCLC
UACC-257 melanoma = tested on: UACC-257 melanoma
CCRF-CEM leukemia = tested on: CCRF-CEM leukemia
DU-145 prostate = tested on: DU-145 prostate
OVCAR-3 ovarian = tested on: OVCAR-3 ovarian
MCF7 breast = tested on: MCF7 breast
HOP-92 NSCLC = tested on: HOP-92 NSCLC
SF-268 CNS = tested on: SF-268 CNS
M14 melanoma = tested on: M14 melanoma
KM12 colon = tested on: KM12 colon
HOP-62 NSCLC = tested on: HOP-62 NSCLC
TK-10 renal = tested on: TK-10 renal
OVCAR-4 ovarian = tested on: OVCAR-4 ovarian
RXF 393 renal = tested on: RXF 393 renal
MDA-N = tested on: MDA-N
SNB-75 CNS = tested on: SNB-75 CNS
A498 renal = tested on: A498 renal
SF-295 CNS = tested on: SF-295 CNS
COLO 205 colon = tested on: COLO 205 colon
U251 CNS = tested on: U251 CNS
SK-MEL-5 melanoma = tested on: SK-MEL-5 melanoma
HL-60(TB) leukemia = tested on: HL-60(TB) leukemia
OVCAR-8 ovarian = tested on: OVCAR-8 ovarian
SF-539 CNS = tested on: SF-539 CNS
NCI-H460 lung = tested on: NCI-H460 lung
NCI-H522 lung = tested on: NCI-H522 lung
NCI-H23 lung = tested on: NCI-H23 lung
UACC-62 melanoma = tested on: UACC-62 melanoma
SNB-19 CNS = tested on: SNB-19 CNS
IGROV1 ovarian = tested on: IGROV1 ovarian
LOX IMVI melanoma = tested on: LOX IMVI melanoma
EKVX NSCLC = tested on: EKVX NSCLC
PC-3 prostate = tested on: PC-3 prostate
HT29 colon = tested on: HT29 colon
UO-31 renal = tested on: UO-31 renal
RPMI-8226 leukemia = tested on: RPMI-8226 leukemia
CAKI-1 renal = tested on: CAKI-1 renal
SR leukemia = tested on: SR leukemia
HCC-2998 colon = tested on: HCC-2998 colon
T-47D breast = tested on: T-47D breast
MALME-3M melanoma = tested on: MALME-3M melanoma
SK-OV-3 ovarian = tested on: SK-OV-3 ovarian
NCI-H226 lung = tested on: NCI-H226 lung
K-562 leukemia = tested on: K-562 leukemia
SW-620 colon = tested on: SW-620 colon
HCT-116 colon = tested on: HCT-116 colon
MOLT-4 leukemia = tested on: MOLT-4 leukemia
MDA-MB-231 breast = tested on: MDA-MB-231 breast
HS 578T breast = tested on: HS 578T breast
NCI/ADR-RES ovarian = tested on: NCI/ADR-RES ovarian
HCT-15 colon = tested on: HCT-15 colon
SK-MEL-2 melanoma = tested on: SK-MEL-2 melanoma
MDA-MB-435 = tested on: MDA-MB-435
SK-MEL-28 melanoma = tested on: SK-MEL-28 melanoma
XF 498 CNS = tested on: XF 498 CNS
KM20L2 colon = tested on: KM20L2 colon
DMS 114 small cell lung = tested on: DMS 114 small cell lung
SNB-78 CNS = tested on: SNB-78 CNS
DMS 273 small cell lung = tested on: DMS 273 small cell lung
LXFL 529 NSCLC = tested on: LXFL 529 NSCLC
DLD-1 colon = tested on: DLD-1 colon

SMILES: Cc1ccc(/C=N/Nc2nncc3ccccc23)s1
- TGI (BT-549 breast): > 100000 nM
- TGI (ACHN renal): > 100000 nM
- TGI (OVCAR-5 ovarian): > 100000 nM
- TGI (786-0 renal): > 95100 nM
- TGI (SN12C renal): > 100000 nM
- TGI (A549 NSCLC): > 100000 nM
- TGI (UACC-257 melanoma): > 100000 nM
- TGI (CCRF-CEM leukemia): > 100000 nM
- TGI (DU-145 prostate): > 31600 nM
- TGI (OVCAR-3 ovarian): > 100000 nM
- TGI (MCF7 breast): > 100000 nM
- TGI (HOP-92 NSCLC): > 100000 nM
- TGI (SF-268 CNS): > 100000 nM
- TGI (M14 melanoma): > 100000 nM
- TGI (KM12 colon): > 100000 nM
- TGI (HOP-62 NSCLC): > 77400 nM
- TGI (TK-10 renal): > 100000 nM
- TGI (OVCAR-4 ovarian): > 93100 nM
- TGI (RXF 393 renal): > 100000 nM
- TGI (MDA-N): > 100000 nM
- TGI (SNB-75 CNS): > 75900 nM
- TGI (A498 renal): > 100000 nM
- TGI (SF-295 CNS): 98200 nM
- TGI (COLO 205 colon): > 100000 nM
- TGI (U251 CNS): > 100000 nM
- TGI (SK-MEL-5 melanoma): > 100000 nM
- TGI (HL-60(TB) leukemia): > 100000 nM
- TGI (OVCAR-8 ovarian): > 100000 nM
- TGI (SF-539 CNS): > 100000 nM
- TGI (NCI-H460 lung): > 100000 nM
- TGI (NCI-H522 lung): > 100000 nM
- TGI (NCI-H23 lung): > 100000 nM
- TGI (UACC-62 melanoma): > 100000 nM
- TGI (SNB-19 CNS): > 100000 nM
- TGI (IGROV1 ovarian): > 100000 nM
- TGI (LOX IMVI melanoma): > 100000 nM
- TGI (EKVX NSCLC): > 100000 nM
- TGI (PC-3 prostate): > 100000 nM
- TGI (HT29 colon): > 100000 nM
- TGI (UO-31 renal): > 100000 nM
- TGI (RPMI-8226 leukemia): > 100000 nM
- TGI (CAKI-1 renal): > 100000 nM
- TGI (SR leukemia): > 100000 nM
- TGI (HCC-2998 colon): > 100000 nM
- TGI (T-47D breast): > 100000 nM
- TGI (MALME-3M melanoma): > 100000 nM
- TGI (SK-OV-3 ovarian): > 100000 nM
- TGI (NCI-H226 lung): > 100000 nM
- TGI (K-562 leukemia): > 100000 nM
- TGI (SW-620 colon): > 100000 nM
- TGI (HCT-116 colon): > 100000 nM
- TGI (MOLT-4 leukemia): > 100000 nM
- TGI (MDA-MB-231 breast): > 82000 nM
- TGI (HS 578T breast): > 100000 nM
- TGI (NCI/ADR-RES ovarian): > 100000 nM
- TGI (HCT-15 colon): > 100000 nM
- TGI (SK-MEL-2 melanoma): > 100000 nM
- TGI (MDA-MB-435): > 100000 nM
- TGI (SK-MEL-28 melanoma): > 100000 nM

SMILES: O=C1C=C(N2CC2)C(=O)C=C1N1CC1
- GI50 (BT-549 breast): 20.7 nM
- TGI (BT-549 breast): 159 nM and 1340 nM
- TGI (XF 498 CNS): 538 nM
- TGI (KM20L2 colon): 1740 nM
- TGI (ACHN renal): 303 nM
- GI50 (OVCAR-5 ovarian): 78.4 nM
- TGI (OVCAR-5 ovarian): 366 nM and 2200 nM
- GI50 (SN12C renal): 30.7 nM
- TGI (SN12C renal): 278 nM and 1140 nM
- GI50 (A549 NSCLC): 145 nM and 860 nM
- TGI (A549 NSCLC): 11200 nM
- GI50 (UACC-257 melanoma): 121 nM
- TGI (UACC-257 melanoma): 339 nM and 999 nM
- GI50 (CCRF-CEM leukemia): 5.68 nM
- TGI (CCRF-CEM leukemia): 456 nM
- GI50 (DU-145 prostate): 10.9 nM
- GI50 (OVCAR-3 ovarian): 153 nM
- TGI (OVCAR-3 ovarian): 967 nM and 277 nM
- GI50 (MCF7 breast): 2.05 nM
- TGI (MCF7 breast): 71.2 nM
- GI50 (HOP-92 NSCLC): 152 nM
- TGI (HOP-92 NSCLC): 576 nM and 1560 nM
- GI50 (SF-268 CNS): 10.9 nM
- TGI (SF-268 CNS): 299 nM and 1500 nM
- GI50 (M14 melanoma): 28.8 nM
- TGI (M14 melanoma): 249 nM
- GI50 (KM12 colon): 242 nM
- TGI (KM12 colon): 2220 nM
- GI50 (HOP-62 NSCLC): 68.7 nM
- TGI (HOP-62 NSCLC): 738 nM
- GI50 (TK-10 renal): 208 nM
- TGI (TK-10 renal): 772 nM
- TGI (DMS 114 small cell lung): 644 nM
- GI50 (OVCAR-4 ovarian): 185 nM
- TGI (OVCAR-4 ovarian): 983 nM and 613 nM
- GI50 (RXF 393 renal): 2.46 nM
- GI50 (MDA-N): 113 nM
- TGI (MDA-N): 274 nM and 1900 nM
- GI50 (SNB-75 CNS): 7.36 nM
- TGI (A498 renal): 158 nM
- GI50 (SF-295 CNS): 38 nM
- TGI (SF-295 CNS): 266 nM and 1300 nM
- GI50 (COLO 205 colon): 34 nM
- TGI (COLO 205 colon): 126 nM and 267 nM
- GI50 (U251 CNS): 23.3 nM
- TGI (U251 CNS): 284 nM and 1490 nM
- GI50 (SK-MEL-5 melanoma): 15.5 nM
- TGI (SK-MEL-5 melanoma): 72 nM and 307 nM
- GI50 (HL-60(TB) leukemia): 2.33 nM
- TGI (HL-60(TB) leukemia): 510 nM and 197 nM
- TGI (OVCAR-8 ovarian): 4310 nM
- GI50 (SF-539 CNS): 22.1 nM
- TGI (SF-539 CNS): 267 nM and 268 nM
- GI50 (NCI-H460 lung): 5.21 nM
- TGI (NCI-H460 lung): 200 nM and 781 nM
- GI50 (NCI-H522 lung): 8.26 nM
- TGI (NCI-H522 lung): 72.7 nM and 144 nM
- GI50 (NCI-H23 lung): 14.1 nM
- TGI (NCI-H23 lung): 132 nM and 289 nM
- GI50 (UACC-62 melanoma): 10 nM
- GI50 (SNB-19 CNS): 203 nM
- TGI (SNB-19 CNS): 4720 nM
- TGI (IGROV1 ovarian): 2480 nM
- GI50 (LOX IMVI melanoma): 29.8 nM
- TGI (LOX IMVI melanoma): 206 nM and 386 nM
- GI50 (EKVX NSCLC): 404 nM and 2650 nM
- TGI (EKVX NSCLC): 4840 nM
- GI50 (HT29 colon): 18.5 nM
- TGI (HT29 colon): 1400 nM
- TGI (UO-31 renal): 229 nM
- GI50 (RPMI-8226 leukemia): 45.6 nM
- TGI (RPMI-8226 leukemia): 503 nM and 1870 nM
- GI50 (CAKI-1 renal): 0.251 nM
- TGI (CAKI-1 renal): 24.7 nM and 67.5 nM
- GI50 (SR leukemia): 26.6 nM
- TGI (SR leukemia): 302 nM
- GI50 (HCC-2998 colon): 23.4 nM
- TGI (HCC-2998 colon): 150 nM and 739 nM
- GI50 (T-47D breast): 51.6 nM
- TGI (T-47D breast): 582 nM and 2850 nM
- GI50 (MALME-3M melanoma): 49.8 nM
- TGI (MALME-3M melanoma): 234 nM and 238 nM
- TGI (SK-OV-3 ovarian): 2190 nM
- GI50 (NCI-H226 lung): 12.9 nM
- TGI (NCI-H226 lung): 261 nM and 1400 nM
- GI50 (K-562 leukemia): 246 nM
- TGI (K-562 leukemia): 2940 nM
- GI50 (SW-620 colon): 14.7 nM
- TGI (SW-620 colon): 848 nM
- GI50 (MOLT-4 leukemia): 1.97 nM
- TGI (MOLT-4 leukemia): 248 nM
- TGI (SNB-78 CNS): 1800 nM
- GI50 (MDA-MB-231 breast): 79.2 nM
- TGI (DMS 273 small cell lung): 520 nM
- TGI (LXFL 529 NSCLC): 527 nM
- TGI (HS 578T breast): 8140 nM
- TGI (DLD-1 colon): 1500 nM
- GI50 (NCI/ADR-RES ovarian): 24.1 nM
- GI50 (HCT-15 colon): 20.7 nM
- TGI (HCT-15 colon): 231 nM and 1210 nM
- GI50 (SK-MEL-2 melanoma): 28.2 nM
- TGI (SK-MEL-2 melanoma): 60.5 nM and 360 nM
- GI50 (MDA-MB-435): 20.6 nM
- GI50 (SK-MEL-28 melanoma): 187 nM
- TGI (SK-MEL-28 melanoma): 680 nM and 654 nM
